From patent US20250171459A1, “2-METHYL-4',5'-DIHYDROSPIRO[PIPERIDINE-4,7'-THIENO[2,3-C]PYRAN] DERIVATIVES AS INHIBITORS OF APOL1 AND METHODS OF USING SAME” (Vertex Pharmaceuticals Incorporated, priority 2022, published 2025)

Molecular target: T1, APOL1 (Homo sapiens, UniProt O14791)
T1 sequence (O14791 1-398 S342G/I384M): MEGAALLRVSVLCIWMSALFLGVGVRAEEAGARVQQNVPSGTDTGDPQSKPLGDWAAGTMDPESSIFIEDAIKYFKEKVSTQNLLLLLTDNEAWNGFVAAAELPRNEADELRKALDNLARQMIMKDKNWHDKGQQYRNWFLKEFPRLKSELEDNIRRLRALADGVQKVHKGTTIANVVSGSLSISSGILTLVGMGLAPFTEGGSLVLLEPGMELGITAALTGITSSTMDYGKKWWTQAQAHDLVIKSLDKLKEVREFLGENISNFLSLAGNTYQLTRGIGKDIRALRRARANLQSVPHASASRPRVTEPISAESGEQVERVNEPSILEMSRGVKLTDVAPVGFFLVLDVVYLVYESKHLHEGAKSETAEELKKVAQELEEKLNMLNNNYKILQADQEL
Test: MultiTox-Fluor Multiplex Cytotoxicity Assay in tet-inducible APOL1 T-REx-HEK293 cells (cell rescue, ratio of dead to live cells)
Format: cell-based
Details: tet-inducible transgenic APOL1 T-REx-HEK293 cell lines, 50 ng/mL tet, 24 hours; read-out: IP50 (i.e., IC50 for cell proliferation)
Summary of the method: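 T-REx-HEK293 cells with tet-inducible APOL1 were treated with compound (10 μM top, 10-point 3-fold dilution, duplicate) plus 50 ng/mL tetracycline for 24 h at 37° C, in DMEM with 2% tet-free FBS. MultiTox-Fluor protease signals gave a dead/live ratio, normalized to no tet (100% viability) and tet alone (0%).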

SMILES | IC50
CCc1cc2c(s1)CCO[C@@]21CCN(Cc2cn(Cc3ccnnc3)nn2)[C@@H](C)C1 [Compound 41] | < 100 nM
C[C@H]1C[C@@]2(CCN1Cc1cnn(Cc3nnco3)c1)OCCc1c2sc(C(F)(F)F)c1CO [Compound 919] | < 100 nM
CCc1cc2c(s1)CCOC21CCN(Cc2ccc(NCc3cc[nH]c(=O)c3)cc2)CC1 [Compound 1162] | 100 to 500 nM
CCc1cc2c(s1)CCOC21CCN(Cc2cnc(C(F)(F)F)[nH]2)CC1 [Compound 1144] | 500 to 1000 nM
C[C@H]1C[C@@]2(CCN1Cc1cnn(CC(O)COCC(F)(F)F)c1)OCCc1c2sc(C(F)(F)F)c1CO (stereo partly shown) [Compound 893] | < 100 nM
CCc1cc2c(s1)CCO[C@@]21CCN(C[C@H]2C[C@@H](NC(=O)C3CCCC(C)(C)C3)C2)[C@@H](C)C1 (stereo partly shown) [Compound 312] | < 100 nM
CCc1cc2c(s1)CCO[C@@]21CCN(C[C@H]2C[C@@H](NS(=O)(=O)C3CC3)C2)[C@@H](C)C1 [Compound 390] | < 100 nM
CCc1cc2c(s1)CCO[C@@]21CCN(C[C@H]2C[C@@H](NC(=O)c3ccc4[nH]nnc4c3)C2)[C@@H](C)C1 [Compound 358] | < 100 nM
C[C@H]1C[C@@]2(CCN1Cc1cnn(C)c1)OCCc1cc(CO)sc12 [Compound 1018, [(2′S, 7R)-2′-methyl-1′-[(1-methylpyrazol-4-yl)methyl]spiro[4,5-dihydrothieno[2,3-c]pyran-7,4′-piperidine]-2-yl]methanol] | 100 to 500 nM
Cc1cc2c(s1)C1(CCN(Cc3cn(CCS(C)(=O)=O)nn3)[C@@H](C)C1)OCC2 (stereo partly drawn) [Compound 1029, (2′S)-2,2′-dimethyl-1′-[[1-(2-methylsulfonylethyl)triazol-4-yl]methyl]spiro[4,5-dihydrothieno[2,3-c]pyran-7,4′-piperidine]] | 100 to 500 nM
CCc1cc2c(s1)CCOC21CCN(Cc2cnc(N[C@H](CC)CO)nc2)CC1 [Compound 1077] | 100 to 500 nM
CCc1cc2c(s1)CCOC21CCN(Cc2csc(-c3cccnc3)n2)CC1 [Compound 1139] | 500 to 1000 nM
CCc1cc2c(s1)CCO[C@@]21CCN([C@@H]2CC[C@H](NC(=O)OC(C)(C)C)C2)[C@@H](C)C1 [Compound 295] | 100 to 500 nM
C[C@H]1C[C@@]2(CCN1Cc1ccc(O)nc1)OC[C@H](O)c1cc(Cl)sc12 [Compound 791] | < 100 nM
CCc1cc2c(s1)CCOC21CCN(Cc2cn(C(C)C(=O)NCCC(F)(F)F)nn2)CC1 (stereo not shown) [Compound 1121] | 500 to 1000 nM
CCc1cc2c(s1)CCOC21CCN(Cc2ccc(C(=O)NCc3ccn(C)n3)nc2)CC1 [Compound 1059] | 100 to 500 nM
CCc1cc2c(s1)CCO[C@@]21CCN(Cc2ccc(NC(C)(C)CO)nc2)[C@@H](C)C1 [Compound 228] | < 100 nM
C[C@H]1C[C@@]2(CCN1Cc1cccc(Cl)c1O)OCCc1c2sc(Cl)c1CO [Compound 712, 2-chloro-6-[[(2′S, 7R)-2-chloro-3-(hydroxymethyl)-2′-methyl-spiro[4,5-dihydrothieno[2,3-c]pyran-7,4′-piperidine]-1′-yl]methyl]phenol] | 500 to 1000 nM
CCc1cc2c(s1)CCO[C@@]21CCN(Cc2cnc(NCCN(CCO)CCO)nc2)[C@@H](C)C1 [Compound 230] | < 100 nM
CCc1cc2c(s1)CCO[C@@]21CCN(C[C@H]2C[C@@H](NC(=O)[C@H]3C[C@@H]3C(F)F)C2)[C@@H](C)C1 [Compound 305] | < 100 nM
C[C@H]1C[C@@]2(CCN1Cc1ncccc1F)OCCc1cc(Cl)sc12 [Compound 684] | 500 to 1000 nM
CCc1cc2c(s1)CCOC21CCN(Cc2cn(CC(O)CC)nn2)C(C)C1 (stereo not shown) [Compound 133] | < 100 nM

SMILES | IC50
C[C@H]1C[C@@]2(CCN1Cc1ncco1)OCCc1cc(CC(F)F)sc12 [Compound 580] | 100 to 500 nM
C[C@H]1C[C@@]2(CCN1Cc1ccc(OCCO)cc1)OCCc1cc(Cl)sc12 [Compound 644] | < 100 nM
C[C@H]1CC2(CCN1Cc1cnn(C)c1)OC1CCCCC1c1cc(Cl)sc12 (stereo partly drawn) [Compound 1021, (2S)-2′-chloro-2-methyl-1-((1-methyl-1H-pyrazol-4-yl)methyl)-5a′,6′,7′,8′,9′,9a′-hexahydrospiro[piperidine-4,4′-thieno[2,3-c]chromene]] | 100 to 500 nM
COc1cc(OCC(N)=O)ccc1CN1CC[C@]2(C[C@@H]1C)OC[C@H](O)c1cc(Cl)sc12 [Compound 773] | < 100 nM
C[C@H]1C[C@@]2(CCN1Cc1cccc(OCCO)c1)OCCc1c2sc(Cl)c1CO [Compound 725] | 100 to 500 nM
CCc1cc2c(s1)CCO[C@@]21CCN(Cc2cn(C[C@H]3C[C@@H](O)C3)nn2)[C@@H](C)C1 [Compound 126] | < 100 nM
Cc1cc(C(=O)N[C@H]2C[C@@H](CN3CC[C@]4(C[C@@H]3C)OCCc3cc(CC(F)F)sc34)C2)on1 [Compound 555] | < 100 nM
C[C@H]1C[C@@]2(CCN1Cc1cnn(CC(O)CC(C)(C)C#N)c1)OCCc1c2sc(C(F)(F)F)c1CO (stereo partly shown) [Compound 963] | < 100 nM
CCc1cc2c(s1)CCO[C@@]21CCN(Cc2cn(CCS(=O)(=O)NC)nn2)[C@@H](C)C1 [Compound 12, 2-[4-[[(2′S)-2-ethyl-2′-methyl-spiro[6,7-dihydrothieno[3,2-c]pyran-4,4′-piperidine]-1′-yl]methyl]triazol-1-yl]-N-methyl-ethanesulfonamide] | < 100 nM
COc1ncc(CN2CC[C@]3(C[C@@H]2C)OC[C@H](O)c2cc(Cl)sc23)cn1 [Compound 807] | 100 to 500 nM
CCc1cc2c(s1)CCO[C@@]21CCN(CC2CN(C(=O)c3cc(CO)n[nH]3)C2)[C@@H](C)C1 [Compound 479] | < 100 nM
CCc1cc2c(s1)CCO[C@@]21CCN(C[C@H]2C[C@@H](NC(=O)OC(C)(C)C)C2)[C@@H](C)C1 [Compound 1039] | < 100 nM
CCOC1CO[C@@]2(CCN(Cc3cnn(CCS(C)(=O)=O)c3)[C@@H](C)C2)c2sc(Cl)cc21 (stereo partly shown) [Compound 844] | 100 to 500 nM
CCc1cc2c(s1)CCOC21CCN(Cc2cn(CC(O)CC)nn2)CC1 (stereo not shown) [Compound 1084] | 500 to 1000 nM
CCc1cc2c(s1)CCOC21CCN(Cc2cn[nH]c2)CC1 [Compound 1133] | 100 to 500 nM
CCc1cc2c(s1)CCO[C@@]21CCN(CC2CN(C(=O)c3c[nH]c(C(F)(F)F)n3)C2)[C@@H](C)C1 [Compound 460] | < 100 nM
CCc1cc2c(s1)CCO[C@@]21CCN(CC2CN(C(=O)c3ccncc3)C2)[C@@H](C)C1 [Compound 430] | < 100 nM
CC(C)C(O)Cn1cc(CN2CC[C@]3(C[C@@H]2C)OCCc2c3sc(C(F)(F)F)c2CO)cn1 (stereo partly drawn) [Compound 891, 1-[4-[[(2′S, 7R)-3-(hydroxymethyl)-2′-methyl-2-(trifluoromethyl)spiro[4,5-dihydrothieno[2,3-c]pyran-7,4′-piperidine]-1′-yl]methyl]pyrazol-1-yl]-3-methyl-butan-2-ol] | < 100 nM
CCc1cc2c(s1)CCO[C@@]21CCN(Cc2cn(CC(C)(C)C(C)O)nn2)[C@@H](C)C1 (stereo partly shown) [Compound 120] | 100 to 500 nM
CCc1cc2c(s1)CCO[C@]21CCN(Cc2cnn(CCS(C)(=O)=O)c2)[C@H](C)C1 [Compound 273] | 100 to 500 nM
CCc1cc2c(s1)CCO[C@@]21CCN(CC2CN(C(=O)c3nnc(C)o3)C2)[C@@H](C)C1 [Compound 476] | < 100 nM
